# Read-outs that look alike come from different tables or passages of the source.
# Experiments:
# Format in all cases: biochemical
# [1] = biological target: T1, ethyl 4-chloroacetoacetate reductase (Kluyveromyces lactis, UniProt Q6CT25); test: Substrate specificity: reducing activity of the enzyme on various ketones and aldehydes; conditions: for Relative activity: coenzyme NADPH, ethyl 4-chloroacetoacetate-reducing activity = 100%; for Reducing activity on substrate (in words): NADPH as electron donor
# T1 construct: almost single band, about 190 kDa on SDS-PAGE
# Description: (§1) In these examples, the 4-haloacetoacetic acid ester-reducing activity of the enzyme of this invention was determined by allowing it to react in a reaction system containing 50 mM potassium phosphate buffer (pH 6.5), 0.2 mM NADPH, 20 mM ethyl 4-chloroacetoacetate, and the enzyme at 30° C. and measuring the decrease in the absorbance at 340 nm in proportion to the decrease of NADPH. One unit of the enzyme was defined as the amount of the enzyme to catalyze a decrease of 1 μmol of NADPH per min. Protein was quantitated by the pigment binding method using a protein assay kit manufactured by BioRad.
# [2] = biological target: T1, ethyl 4-chloroacetoacetate reductase; test: as above; conditions: substrate 20 mM, coenzyme NAD; ethyl 4-chloroacetoacetate-reducing activity = 100%
# [3] = biological target: T1, ethyl 4-chloroacetoacetate reductase; test: Effects of various inhibitors on the ethyl 4-chloroacetoacetate-reducing activity
# Description: as §1
# After the enzyme obtained in Example 1 was treated with various reagents at 30° C. for 10 min, it was assayed for the remaining activity to reduce ethyl 4chloroacetoacetate.
# [4] = inhibitor 1 mM, 30° C., 10 min, standard conditions = 100%
# [5] = inhibitor 1 mM, 30° C., 10 min, standard conditions = 100%, read-out: Residual activity
# T1 sequence (Q6CT25 1-1893): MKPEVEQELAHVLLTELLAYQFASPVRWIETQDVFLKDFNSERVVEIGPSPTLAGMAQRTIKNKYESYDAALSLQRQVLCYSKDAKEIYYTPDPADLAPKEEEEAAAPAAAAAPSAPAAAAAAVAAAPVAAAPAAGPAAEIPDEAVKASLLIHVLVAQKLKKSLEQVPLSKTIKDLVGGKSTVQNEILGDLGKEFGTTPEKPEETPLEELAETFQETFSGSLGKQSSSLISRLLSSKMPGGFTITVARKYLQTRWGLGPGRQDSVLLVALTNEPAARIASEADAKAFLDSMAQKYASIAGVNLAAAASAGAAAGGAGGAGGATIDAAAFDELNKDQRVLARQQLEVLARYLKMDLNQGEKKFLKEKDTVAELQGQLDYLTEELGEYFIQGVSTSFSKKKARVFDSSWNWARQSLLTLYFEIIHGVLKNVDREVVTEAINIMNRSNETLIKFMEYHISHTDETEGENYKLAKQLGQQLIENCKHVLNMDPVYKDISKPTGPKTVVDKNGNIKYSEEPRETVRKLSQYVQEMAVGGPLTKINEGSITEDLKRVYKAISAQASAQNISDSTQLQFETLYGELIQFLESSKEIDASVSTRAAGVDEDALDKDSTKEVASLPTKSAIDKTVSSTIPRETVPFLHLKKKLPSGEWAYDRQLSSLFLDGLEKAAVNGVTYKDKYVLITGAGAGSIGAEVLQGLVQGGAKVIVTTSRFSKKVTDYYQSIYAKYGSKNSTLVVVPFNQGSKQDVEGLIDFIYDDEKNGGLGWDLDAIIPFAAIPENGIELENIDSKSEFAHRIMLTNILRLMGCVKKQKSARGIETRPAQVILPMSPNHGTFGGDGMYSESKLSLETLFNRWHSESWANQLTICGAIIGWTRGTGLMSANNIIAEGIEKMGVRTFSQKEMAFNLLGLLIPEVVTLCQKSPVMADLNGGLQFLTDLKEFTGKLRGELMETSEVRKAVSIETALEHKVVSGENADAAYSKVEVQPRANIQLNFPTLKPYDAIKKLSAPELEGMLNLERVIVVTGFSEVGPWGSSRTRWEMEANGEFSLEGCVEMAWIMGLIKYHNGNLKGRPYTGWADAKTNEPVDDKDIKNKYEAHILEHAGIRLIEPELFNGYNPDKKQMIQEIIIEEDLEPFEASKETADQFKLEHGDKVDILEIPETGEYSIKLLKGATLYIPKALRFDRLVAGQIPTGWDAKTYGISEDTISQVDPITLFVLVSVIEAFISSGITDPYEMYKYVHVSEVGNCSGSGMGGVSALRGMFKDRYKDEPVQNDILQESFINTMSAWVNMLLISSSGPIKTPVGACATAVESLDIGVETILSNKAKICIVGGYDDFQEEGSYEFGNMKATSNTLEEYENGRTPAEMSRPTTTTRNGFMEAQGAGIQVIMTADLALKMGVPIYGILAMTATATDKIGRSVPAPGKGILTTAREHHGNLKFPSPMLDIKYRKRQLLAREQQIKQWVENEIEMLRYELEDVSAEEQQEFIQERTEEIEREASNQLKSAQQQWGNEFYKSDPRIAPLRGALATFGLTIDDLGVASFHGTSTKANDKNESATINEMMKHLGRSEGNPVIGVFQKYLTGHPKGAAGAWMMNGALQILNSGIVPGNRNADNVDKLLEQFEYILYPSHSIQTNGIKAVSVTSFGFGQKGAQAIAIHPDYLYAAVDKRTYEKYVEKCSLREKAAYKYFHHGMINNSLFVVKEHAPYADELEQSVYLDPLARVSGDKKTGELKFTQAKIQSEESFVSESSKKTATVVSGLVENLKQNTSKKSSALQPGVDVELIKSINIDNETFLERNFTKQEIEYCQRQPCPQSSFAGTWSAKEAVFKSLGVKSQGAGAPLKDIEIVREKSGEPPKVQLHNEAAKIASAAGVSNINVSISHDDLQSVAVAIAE
# T1 sequence (Q6CWN6 1-2047 partner): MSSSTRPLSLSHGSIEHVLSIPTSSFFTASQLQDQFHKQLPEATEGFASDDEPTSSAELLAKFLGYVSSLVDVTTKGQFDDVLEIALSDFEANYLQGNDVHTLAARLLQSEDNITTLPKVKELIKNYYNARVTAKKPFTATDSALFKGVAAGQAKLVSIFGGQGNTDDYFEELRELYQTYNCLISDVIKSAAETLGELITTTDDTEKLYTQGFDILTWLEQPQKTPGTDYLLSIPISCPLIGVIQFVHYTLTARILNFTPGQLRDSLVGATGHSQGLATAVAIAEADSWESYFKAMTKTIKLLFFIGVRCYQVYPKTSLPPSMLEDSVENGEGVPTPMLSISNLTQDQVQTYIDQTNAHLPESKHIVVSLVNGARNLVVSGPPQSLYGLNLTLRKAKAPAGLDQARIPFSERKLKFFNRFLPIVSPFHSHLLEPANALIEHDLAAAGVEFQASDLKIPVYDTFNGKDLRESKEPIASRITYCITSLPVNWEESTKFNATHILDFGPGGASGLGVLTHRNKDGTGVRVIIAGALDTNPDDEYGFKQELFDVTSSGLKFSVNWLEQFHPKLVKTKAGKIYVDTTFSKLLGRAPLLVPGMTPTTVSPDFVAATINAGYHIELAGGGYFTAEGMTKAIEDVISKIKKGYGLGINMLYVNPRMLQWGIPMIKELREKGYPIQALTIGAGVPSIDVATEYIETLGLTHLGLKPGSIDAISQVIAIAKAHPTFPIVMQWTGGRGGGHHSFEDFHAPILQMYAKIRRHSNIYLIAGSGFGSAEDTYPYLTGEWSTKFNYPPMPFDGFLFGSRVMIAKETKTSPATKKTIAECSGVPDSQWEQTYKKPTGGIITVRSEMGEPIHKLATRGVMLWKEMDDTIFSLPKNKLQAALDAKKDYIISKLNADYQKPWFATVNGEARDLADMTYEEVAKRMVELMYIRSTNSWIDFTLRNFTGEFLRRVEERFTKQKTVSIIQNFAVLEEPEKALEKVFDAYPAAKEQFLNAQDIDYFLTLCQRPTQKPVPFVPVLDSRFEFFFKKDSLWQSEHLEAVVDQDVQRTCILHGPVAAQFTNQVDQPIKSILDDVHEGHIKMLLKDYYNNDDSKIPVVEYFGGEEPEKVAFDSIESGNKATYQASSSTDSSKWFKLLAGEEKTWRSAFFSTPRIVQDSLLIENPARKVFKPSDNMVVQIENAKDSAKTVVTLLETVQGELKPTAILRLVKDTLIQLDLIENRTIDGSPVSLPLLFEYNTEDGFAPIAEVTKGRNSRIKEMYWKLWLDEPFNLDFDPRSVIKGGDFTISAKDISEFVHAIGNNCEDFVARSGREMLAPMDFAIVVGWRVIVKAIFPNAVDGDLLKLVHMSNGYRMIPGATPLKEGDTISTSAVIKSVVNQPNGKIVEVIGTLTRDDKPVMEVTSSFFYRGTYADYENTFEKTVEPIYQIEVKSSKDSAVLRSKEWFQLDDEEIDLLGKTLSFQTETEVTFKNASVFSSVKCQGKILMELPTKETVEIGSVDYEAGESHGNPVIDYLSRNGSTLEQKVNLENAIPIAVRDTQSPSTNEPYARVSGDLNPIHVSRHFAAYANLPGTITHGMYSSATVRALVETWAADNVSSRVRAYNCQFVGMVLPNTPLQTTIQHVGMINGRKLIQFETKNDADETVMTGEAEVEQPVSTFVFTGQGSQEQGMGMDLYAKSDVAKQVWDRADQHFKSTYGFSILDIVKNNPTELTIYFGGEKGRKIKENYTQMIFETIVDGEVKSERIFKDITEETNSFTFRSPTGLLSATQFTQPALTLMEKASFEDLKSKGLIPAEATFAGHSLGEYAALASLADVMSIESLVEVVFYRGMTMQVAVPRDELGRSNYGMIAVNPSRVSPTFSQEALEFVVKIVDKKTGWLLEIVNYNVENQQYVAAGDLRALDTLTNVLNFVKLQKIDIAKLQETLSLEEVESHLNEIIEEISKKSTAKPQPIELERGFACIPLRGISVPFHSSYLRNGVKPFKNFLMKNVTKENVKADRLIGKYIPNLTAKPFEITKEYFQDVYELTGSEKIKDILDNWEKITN
smiles,measurement,setting,value
CCOC(=O)C(=O)CCc1ccccc1,Relative activity,[1]; substrate 20 mM,0%
CCOC(=O)C[C@H](O)CCl,Relative activity,[2],0%
"CC(=O)C(C)=O [2,3-Butanedione]",Relative activity,[1]; substrate 20 mM,4.2%
"CCC(=O)C(C)=O [2,3-Pentanedione]",Reducing activity on substrate (in words),[1],high activity
same,Relative activity,[1]; substrate 20 mM,44.2%
"CC(=O)CC(C)=O [2,4-Pentanedione]",Relative activity,[1]; substrate 20 mM,0%
O=C1CN2CCC1CC2 [3-Quinuclidinone],Relative activity,[1]; substrate 20 mM,0.8%
CC(=O)CCO [4-Hydroxy-2-butanone],Relative activity,[1]; substrate 20 mM,0%
CC(=O)c1ccccc1 [Acetophenone],Relative activity,[1]; substrate 20 mM,0%
CC(=O)COC(C)=O [Acetoxy-2-propanone],Relative activity,[1]; substrate 20 mM,0%
O=C(O)C(=O)CCc1ccccc1 [Benzylpyruvic acid],Relative activity,[1]; substrate 1 mM,0%
C/C=C/C(=O)O [Chlotonic acid],remaining activity at 50000 µM,"[3]; inhibitor 50 mM, 30° C., 10 min, standard conditions = 100%, read-out: Residual activity",87.7%
O=S(=O)([O-])[O-].[Cu+2] [Copper sulfate],Inhibition of the enzyme (in words),[3],inhibited
same,Residual activity,[3]; [4],0.0%
same,Inhibition of the enzyme (in words),[3]; listed as cupric sulfate,significantly inhibited
CCC1(CC)C(=O)NC(=O)NC1=O [Diethylbarbituric acid],remaining activity at 1000 µM,[3]; [5],82.5%
CCOC(=O)CC(=O)CCl [Ethyl 4-chloroacetoacetate],Relative activity,[1]; substrate 20 mM,100%
same,Relative activity,"[1]; substrate 20 mM, listed as Ethyl 4-chloroacetoaetate",0%
CCOC(=O)C[C@@H](O)CCl [Ethyl (R)-4-chloro-3-hydroxy-acetate],Relative activity,[2],0%
CCOC(=O)CC(C)=O [Ethyl acetoacetate],Relative activity,[1]; substrate 20 mM,0%
O=C(O)CN(CCN(CC(=O)O)CC(=O)O)CC(=O)O [Ethylenediaminetetraacetic acid],remaining activity at 1000 µM,[3]; read-out: Residual activity,98.4%
NC(=O)CI [Iodoacetamide],remaining activity at 1000 µM,[3]; [5],53.9%
O=C1Nc2ccccc2C1=O [Isatine],Relative activity,[1]; substrate 0.4 mM,0%
[Cl][Hg][Cl] [Mercuric chloride],Inhibition of the enzyme (in words),[3],significantly inhibited
same,Residual activity,"[3]; inhibitor 0.01 mM, 30° C., 10 min, standard conditions = 100%",0.0%
COC(=O)CC(=O)CCl [Methyl 4-chloroacetoacetate],Reducing activity on substrate (in words),[1],high activity
same,Relative activity,[1]; substrate 20 mM,66.3%
COC(=O)CC(C)=O [Methyl acetoacetate],Relative activity,[1]; substrate 20 mM,0%
C=CC(C)=O [Methyl vinyl ketone],Inhibition of the enzyme (in words),[3],inhibited
same,remaining activity at 10000 µM,"[3]; inhibitor 10 mM, 30° C., 10 min, standard conditions = 100%, read-out: Residual activity",26.3%
CC(=O)C=O [Methylglyoxal],Relative activity,[1]; substrate 20 mM,1.8%
CCN1C(=O)C=CC1=O [N-ethylmaleimide],Inhibition of the enzyme (in words),[3],inhibited
same,remaining activity at 1000 µM,[3]; [5],20.1%
O=CC(=O)c1ccccc1 [Phenylglyoxal],Relative activity,[1]; substrate 0.5 mM,0%
O=S(=O)(F)Cc1ccccc1 [Phenylmethanesulfonyl fluoride],Residual activity,[3]; [4],89.4%
CCC=O [Propionaldehyde],Relative activity,[1]; substrate 20 mM,0%
O=Cc1cccnc1 [Pyridine-3-aldehyde],Relative activity,[1]; substrate 20 mM,0%
O=c1c(O)c(-c2ccc(O)c(O)c2)oc2cc(O)cc(O)c12 [Quercetin],remaining activity at 100 µM,"[3]; inhibitor 0.1 mM, 30° C., 10 min, standard conditions = 100%, read-out: Residual activity",68.1%
O=C[C@H](O)[C@@H](O)[C@H](O)CO [Xylose],Relative activity,[1]; substrate 20 mM,0%
O=S(=O)([O-])[O-].[Zn+2] [Zinc sulfate],Inhibition of the enzyme (in words),[3],inhibited
same,Residual activity,[3]; [4],12.2%
O=Cc1cccc([N+](=O)[O-])c1 [m-Nitrobenzaldehyde],Relative activity,[1]; substrate 0.2 mM,0.4%
O=Cc1ccccc1[N+](=O)[O-] [o-Nitrobenzaldehyde],Relative activity,[1]; substrate 0.2 mM,0%
c1cnc2c(c1)ccc1cccnc12 [o-Phenanthroline],remaining activity at 1000 µM,[3]; [5],88.3%
O=C(O)c1cc[c]([Hg][Cl])cc1 [p-Chloromercuribenzoic acid],Inhibition of the enzyme (in words),[3],completely inhibited
same,Residual activity,"[3]; inhibitor 0.05 mM, 30° C., 10 min, standard conditions = 100%",0.0%
same,Inhibition of the enzyme (in words),[3]; listed as p-chloromercuricbenzoic acid,significantly inhibited
O=Cc1ccc([N+](=O)[O-])cc1 [p-Nitrobenzaldehyde],Relative activity,[1]; substrate 0.2 mM,0%

# — patent US6218157A, “Haloacetoacetate reductase, method for producing said enzyme, and method for producing alcohols using said enzyme” (priority 1997, dated 2001)
